Experimental data taken from patent US20250325687A1, “CONJUGATE COMPRISING TOLL-LIKE RECEPTOR AGONIST” (MABSOFT THERAPEUTICS (SHANGHAI) CO., LTD., priority 2022, published 2025).

Key:
[1] = target: T1, hTLR8 (human Toll-like receptor 8) (Homo sapiens, UniProt Q9NR97); experiment: hTLR8 cell assay (HEK-Blue hTLR8 reporter cells); assay type: cell-based; conditions: 24 hours, OD 650 nm
T1 construct: host or cells: HEK-Blue hTLR8 (HEK293-derived reporter cells)
T1 sequence (Q9NR97 27-1041): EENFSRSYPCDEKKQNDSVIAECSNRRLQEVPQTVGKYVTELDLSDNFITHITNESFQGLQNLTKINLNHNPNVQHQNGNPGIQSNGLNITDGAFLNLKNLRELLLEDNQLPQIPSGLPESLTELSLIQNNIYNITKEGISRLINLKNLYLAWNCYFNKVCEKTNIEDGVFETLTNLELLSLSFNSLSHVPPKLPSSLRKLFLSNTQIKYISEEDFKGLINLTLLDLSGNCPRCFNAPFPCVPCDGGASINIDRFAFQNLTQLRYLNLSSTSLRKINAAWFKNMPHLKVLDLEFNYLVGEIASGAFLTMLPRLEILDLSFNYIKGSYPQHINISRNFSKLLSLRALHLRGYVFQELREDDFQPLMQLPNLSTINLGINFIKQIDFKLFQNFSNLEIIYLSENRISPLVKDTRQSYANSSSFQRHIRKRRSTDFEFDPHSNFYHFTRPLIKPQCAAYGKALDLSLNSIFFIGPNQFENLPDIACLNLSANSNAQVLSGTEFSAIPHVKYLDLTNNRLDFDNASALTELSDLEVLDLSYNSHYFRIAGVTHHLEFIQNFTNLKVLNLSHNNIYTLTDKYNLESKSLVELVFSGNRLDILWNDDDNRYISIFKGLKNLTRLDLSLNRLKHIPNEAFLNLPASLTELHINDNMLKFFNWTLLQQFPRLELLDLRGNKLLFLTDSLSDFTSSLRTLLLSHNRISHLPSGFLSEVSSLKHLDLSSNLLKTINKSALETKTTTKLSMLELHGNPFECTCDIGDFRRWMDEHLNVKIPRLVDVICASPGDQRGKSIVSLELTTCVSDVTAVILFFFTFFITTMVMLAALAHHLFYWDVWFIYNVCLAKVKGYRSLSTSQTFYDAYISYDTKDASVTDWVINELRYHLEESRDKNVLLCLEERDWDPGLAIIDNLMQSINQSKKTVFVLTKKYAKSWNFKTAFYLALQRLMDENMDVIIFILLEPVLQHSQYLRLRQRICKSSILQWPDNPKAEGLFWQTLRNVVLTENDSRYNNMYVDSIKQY
Method: (§1) The payload compounds of Formula (II′) were assayed to evaluate their agonistic activity on hTLR7 (human Toll-like receptor 7) and hTLR8 (human Toll-like receptor 8). Reporter cells lines (HEK-Blue hTLR7 and HEK-Blue hTLR8) were obtained from InvivoGen. Cells were cryopreserved in liquid nitrogen per supplier's instruction. Upon test, the cells were thawed, passaged and cultured in the growth media of DMEM supplemented with 10% fetal bovine serum, 1×NEAA, 1 mM Pyruvate, 2 mM glutamine, […] in the presence of the following antibiotics, as shown as Table 1. Test compounds (at desired concentrations diluted) were added to the 96-well assay plate, 0.5 μL per well. Reporter cells were harvested from the tissue culture flasks by incubation in PBS at 37° C. for two minutes after the media in the flask is removed and cells rinsed with PBS. Cells were counted and diluted in the HEK-Blue Detection media at 50000 cells/mL and incubated for 24 hours at 37° C., in a 5% CO2 humidified incubator. Then 20 μL of cell supernatant were added to the assay plate containing the 180 µL of QUANTI-Blue, incubated for 1 hour at 37° C. Optical density at 650 nm was analyzed using an Envision (Perkin Elmer) plate reader.

[2] = target: T2, hTLR7 (human Toll-like receptor 7) (Homo sapiens, UniProt Q9NYK1); experiment: hTLR7 cell assay (HEK-Blue hTLR7 reporter cells); assay type: cell-based; conditions: 24 hours, OD 650 nm
T2 construct: host or cells: HEK-Blue hTLR7 (HEK293-derived reporter cells)
T2 sequence (Q9NYK1 27-1049): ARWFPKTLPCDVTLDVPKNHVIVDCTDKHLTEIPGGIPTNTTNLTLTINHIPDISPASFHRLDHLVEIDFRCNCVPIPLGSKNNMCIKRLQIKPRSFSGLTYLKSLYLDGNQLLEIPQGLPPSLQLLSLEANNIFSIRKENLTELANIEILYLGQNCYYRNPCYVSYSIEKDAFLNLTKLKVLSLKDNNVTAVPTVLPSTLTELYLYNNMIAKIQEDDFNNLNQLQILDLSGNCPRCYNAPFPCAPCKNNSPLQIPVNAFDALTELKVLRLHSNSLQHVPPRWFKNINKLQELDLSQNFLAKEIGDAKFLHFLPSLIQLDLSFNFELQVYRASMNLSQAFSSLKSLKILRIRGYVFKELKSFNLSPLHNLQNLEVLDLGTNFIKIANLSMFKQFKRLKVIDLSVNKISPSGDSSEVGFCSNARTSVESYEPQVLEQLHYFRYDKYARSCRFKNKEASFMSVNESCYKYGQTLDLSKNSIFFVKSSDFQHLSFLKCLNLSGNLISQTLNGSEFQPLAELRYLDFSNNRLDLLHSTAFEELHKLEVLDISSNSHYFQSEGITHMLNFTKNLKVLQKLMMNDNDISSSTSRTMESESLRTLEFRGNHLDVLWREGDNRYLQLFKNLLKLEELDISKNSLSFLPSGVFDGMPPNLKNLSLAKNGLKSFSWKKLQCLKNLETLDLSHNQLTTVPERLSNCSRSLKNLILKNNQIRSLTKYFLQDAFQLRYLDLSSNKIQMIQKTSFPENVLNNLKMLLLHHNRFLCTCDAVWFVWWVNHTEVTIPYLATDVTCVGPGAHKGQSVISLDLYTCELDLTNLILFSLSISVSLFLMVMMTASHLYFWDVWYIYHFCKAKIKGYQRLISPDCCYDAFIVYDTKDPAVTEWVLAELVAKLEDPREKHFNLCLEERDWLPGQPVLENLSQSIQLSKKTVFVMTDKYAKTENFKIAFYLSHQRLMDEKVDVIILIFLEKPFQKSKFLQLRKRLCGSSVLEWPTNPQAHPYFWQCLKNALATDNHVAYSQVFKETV
Method: as §1

CCCC(C)c1nc2c(N)nc3cc(Cc4ccccc4)ccc3c2n1CC(C)(C)OCCN (racemic) [Compound 28, 1-(2-(2-aminoethoxy)-2-methylpropyl)-7-benzyl-2-(pentan-2-yl)-1H-imidazo[4,5-c]quinolin-4-amine]
EC50 [1]: < 5 µM
EC50 [2]: > 10 µM

CCOCc1nc2c(N)nc3cc(Cc4ccc(CN)cc4)ccc3c2n1CC(C)(C)O [Compound 1, 1-(4-amino-7-(4-(aminomethyl)benzyl)-2-(ethoxymethyl)-1H-imidazo[4,5-c]quinolin-1-yl)-2-methylpropan-2-ol]
EC50 [1]: > 20 µM
EC50 [2]: > 10 µM

CCOCc1nc2c(N)nc3cc(Cc4cccc(CCN)c4)ccc3c2n1CC(C)(C)O [Compound 5, 1-(4-amino-7-(3-(2-aminoethyl)benzyl)-2-(ethoxymethyl)-1H-imidazo[4,5-c]quinolin-1-yl)-2-methylpropan-2-ol]
EC50 [1]: 5 to 20 µM
EC50 [2]: 1 to 10 µM

CCOCc1nc2c(N)nc3cc(Cc4ccc(C(=O)NCCN)cc4)ccc3c2n1CC(C)(C)O [Compound 6, 4-((4-amino-2-(ethoxymethyl)-1-(2-hydroxy-2-methylpropyl)-1H-imidazo[4,5-c]quinolin-7-yl)methyl)-N-(2-aminoethyl)benzamide]
EC50 [1]: > 20 µM
EC50 [2]: > 10 µM

CCOCc1nc2c(N)nc3cc(Cc4ccc(NC(=O)NCCN)cc4)ccc3c2n1CC(C)(C)O [Compound 7, 1-(4-((4-amino-2-(ethoxymethyl)-1-(2-hydroxy-2-methylpropyl)-1H-imidazo[4,5-c]quinolin-7-yl)methyl)phenyl)-3-(2-aminoethyl)urea]
EC50 [1]: 5 to 20 µM
EC50 [2]: > 10 µM

CCCC(C)c1nc2c(N)nc3cc(Cc4ccc(CCN)cc4)ccc3c2n1CC(C)(C)O (stereo not shown) [Compound 8, 1-(4-amino-7-(4-(2-aminoethyl)benzyl)-2-(pentan-2-yl)-1H-imidazo[4,5-c]quinolin-1-yl)-2-methylpropan-2-ol]
EC50 [1]: < 5 µM
EC50 [2]: 1 to 10 µM

CCC[C@H](C)c1nc2c(N)nc3cc(Cc4ccc(CCN)cc4)ccc3c2n1CC(C)(C)O [Compound 10, (S)-1-(4-amino-7-(4-(2-aminoethyl)benzyl)-2-(pentan-2-yl)-1H-imidazo[4,5-c]quinolin-1-yl)-2-methylpropan-2-ol]
EC50 [1]: > 20 µM
EC50 [2]: > 10 µM

CCCC(C)c1nc2c(N)nc3cc(Cc4ccc(CCCN)cc4)ccc3c2n1CC(C)(C)O (stereo not shown) [Compound 11, 1-(4-amino-7-(4-(3-aminopropyl)benzyl)-2-(pentan-2-yl)-1H-imidazo[4,5-c]quinolin-1-yl)-2-methylpropan-2-ol]
EC50 [1]: < 5 µM
EC50 [2]: 1 to 10 µM

CCCC(C)c1nc2c(N)nc3cc(Cc4cccc(CN)c4)ccc3c2n1CC(C)(C)O (stereo not shown) [Compound 12, 1-(4-amino-7-(3-(aminomethyl)benzyl)-2-(pentan-2-yl)-1H-imidazo[4,5-c]quinolin-1-yl)-2-methylpropan-2-ol]
EC50 [1]: < 5 µM
EC50 [2]: 1 to 10 µM

CCCC(C)c1nc2c(N)nc3cc(Cc4cccc(CCN)c4)ccc3c2n1CC(C)(C)O (stereo not shown) [Compound 13, 1-(4-amino-7-(3-(2-aminoethyl)benzyl)-2-(pentan-2-yl)-1H-imidazo[4,5-c]quinolin-1-yl)-2-methylpropan-2-ol]
EC50 [1]: < 5 µM
EC50 [2]: 1 to 10 µM

CCCC(C)c1nc2c(N)nc3cc(Cc4cccc(CCCN)c4)ccc3c2n1CC(C)(C)O (stereo not shown) [Compound 14, 1-(4-amino-7-(3-(3-aminopropyl)benzyl)-2-(pentan-2-yl)-1H-imidazo[4,5-c]quinolin-1-yl)-2-methylpropan-2-ol]
EC50 [1]: 5 to 20 µM
EC50 [2]: 1 to 10 µM

CCOCc1nc2c(N)nc3cc(Cc4ccc(CCN)cc4)ccc3c2n1CC(C)(C)OCCNC(=O)C(C)(C)N [Compound 21]
EC50 [1]: > 20 µM
EC50 [2]: < 1 µM

CCOCc1nc2c(N)nc3cc(Cc4ccc(CCN)cc4)ccc3c2n1CC(C)(C)OCCNC(=O)C(C)C [Compound 22, N-(2-((1-(4-amino-7-(4-(2-aminoethyl)benzyl)-2-(ethoxymethyl)-1H-imidazo[4,5-c]quinolin-1-yl)-2-methylpropan-2-yl)oxy)ethyl)isobutyramide]
EC50 [1]: > 20 µM
EC50 [2]: 1 to 10 µM

CCOCc1nc2c(N)nc3cc(Cc4ccc(CCN(C)C)cc4)ccc3c2n1CC(C)(C)OCCN [Compound 24, 1-(2-(2-aminoethoxy)-2-methylpropyl)-7-(4-(2-(dimethylamino)ethyl)benzyl)-2-(ethoxymethyl)-1H-imidazo[4,5-c]quinolin-4-amine]
EC50 [1]: > 20 µM
EC50 [2]: > 10 µM

CCOCc1nc2c(N)nc3cc(Cc4ccc(CCN5CCCC5)cc4)ccc3c2n1CC(C)(C)OCCN [Compound 25, 1-(2-(2-aminoethoxy)-2-methylpropyl)-2-(ethoxymethyl)-7-(4-(2-(pyrrolidin-1-yl)ethyl)benzyl)-1H-imidazo[4,5-c]quinolin-4-amine]
EC50 [1]: > 20 µM
EC50 [2]: > 10 µM

CCOCc1nc2c(N)nc3cc(Cc4ccc(CCN)cc4)ccc3c2n1CC(C)(C)OCCN1CCCC1 [Compound 26, 7-(4-(2-aminoethyl)benzyl)-2-(ethoxymethyl)-1-(2-methyl-2-(2-(pyrrolidin-1-yl)ethoxy)propyl)-1H-imidazo[4,5-c]quinolin-4-amine]
EC50 [1]: > 20 µM
EC50 [2]: 1 to 10 µM

CCOCc1nc2c(N)nc3cc(Cc4ccc(CC(N)=O)cc4)ccc3c2n1CC(C)(C)OCCN [Compound 27, 2-[4-({4-amino-1-[2-(2-aminoethoxy)-2-methylpropyl]-2-(ethoxymethyl)imidazo[4,5-c]quinolin-7-yl}methyl)phenyl]acetamide]
EC50 [1]: > 20 µM
EC50 [2]: 1 to 10 µM

CCC[C@H](C)c1nc2c(N)nc3cc(Cc4ccccc4)ccc3c2n1CC(C)(C)OCCN [Compound 29, (S)-1-(2-(2-aminoethoxy)-2-methylpropyl)-7-benzyl-2-(pentan-2-yl)-1H-imidazo[4,5-c]quinolin-4-amine]
EC50 [1]: > 20 µM
EC50 [2]: > 10 µM

CCCCc1nc2c(N)nc3cc(Cc4ccccc4)ccc3c2n1CC(C)(C)OCCN [Compound 31]
EC50 [1]: < 5 µM
EC50 [2]: < 1 µM

CCOCc1nc2c(N)nc3cc(Cc4ccccc4)ccc3c2n1CC(C)(C)OCCCN [Compound 33]
EC50 [1]: 5 to 20 µM
EC50 [2]: 1 to 10 µM
